The target of one assay is T1, mushroom tyrosinase (Agaricus bisporus, UniProt C7FF04).
T1 construct: purchased Sigma T-3824
Briefly: Tyrosinase inhibition test (in vitro acellular depigmenting activity). To be noted: for Tyrosinase depigmenting activity result: class symbol, assay from 250 to 150 μM, overall tyrosinase activity (MPMOg), L-tyrosine substrate. The format is biochemical. An excerpt:
A) Determination of the Depigmenting Activity in an in vitro Acellular Test: Tyrosinase Inhibition Test)
This test is used to evaluate the depigmenting activity of the molecules tested. Tyrosinase is a limiting enzyme in melanogenesis.
It belongs to the family of oxydoreductases. It has in particular the function: monophenol monooxygenase (MPMO) and polyphenol oxidase (PPO).
It is synthesised at the level of the melanocytes. It is activated during its migration towards melanosome […]. It transforms tyrosine into DOPA then dopaquinone, which leads in fine to a polymerisation, i.e. a production of pigments (see diagram below).
The substrate: L-tyrosine, is transformed into L-DOPA by the monophenol mono oxygenase function which is transformed by the polyphenol oxidase function from tyrosinase into dopaquinone. The latter is going to self-oxidise into dopachrome which is measured by spectrophotometry at 490 nm.
More precisely, it is the overall tyrosinase activity (MPMOg) which is measured since it is the dopachrome in fine that is assayed. Thus the products tested on MPMOg (=measurement of the activity on PPO and MPMO) can cumulate the inhibition of the 2 functions, • inhibiting uniquely the MPMO function stricto sensus (transformation of tyrosine into DOPA) as a complement to the PPO test, • could inhibit PPO uniquely. General Experimental Conditions:

A further assay deals with B16-F10 cells. Briefly: Melanin assay test in B16-F10 cells. The class given is cell-based, murine. To be noted: for inhibition at 20 µM / inhibition at 10 µM: B16-F10, 72 h. As for the experimental part: B) Melanin Assay Test in B16-F10 Cells:
This involves a test of measuring the synthesis of melanin by colorimetric assay on a murine melanoma cell line: the B16-F10 line. This test makes it possible to evaluate the depigmenting power of active ingredients.
The B16-F10 cells are cultured in 96-well plates in DMEM medium supplemented with FCS (foetal calf serum), and incubated for 24 hours at 37° C., 5% CO2. The cells are then stimulated with 0.1 μM α-MSH (to stimulate the synthesis of melanin, the stimulation observed is around 150%) and treated for 72 hours with the active ingredients to be tested. Each concentration of active ingredient is tested at least in triplicate. The total melanin followed by the intracellular melanin dissolved in the lysis buffer are then assayed by absorbance reading at 405 nm. The total proteins are assayed in the lysate and the results are expressed in mg melanin/mg proteins. The percentage of activity is calculated as follows: […]
A negative value indicates an inhibition, whereas a positive value indicates an induction of the synthesis of melanin.
• B16-F10 cell line between P10 and P20 (murine melanocytes) (ATCC, CRL-6475)
Reagents: • DMEM without phenol red (GibcoBRL, 31053-028), 200 mM Glutamax-I Supplement (GibcoBRL, 35050-038), D-PBS (GibcoBRL, 14190-094), Foetal calf serum (Invitrogen, 10270-098), Trypsine-EDTA (GibcoBRL, 25300-054), NaOH (Sigma, S8045-500G), DMSO (Sigma, 471267-1L), Nle, Phe—Melanocyte Stimulating Hormone (Sigma, M-8764), Melanin (Sigma, M-0418), BCA-Copper (Sigma, B9643 and C2284), BSA (Sigma, P0914) C) Test for the Study of the Antioxidant Capacity by Chemiluminescence (Photochem Analytik Jena) Principle: […]

A short description of assay [1]: Antioxidant capacity by chemiluminescence (Photochem Analytik Jena). The settings on record: Trolox equivalent; lower = stronger antioxidant. As for the experimental part:
This test is used to determine the antioxidant capacity of the molecules. It is a method that generates free radicals by a photochemical signal. The intensity of the oxidation is 1000 times greater than that obtained under normal conditions.
The detection is carried out by chemiluminescence. It enables the evaluation of hydrosoluble and liposoluble anti-oxidant molecules or extracts.
The results are expressed respectively in equivalent quantity of vitamin C or Trolox (6-hydroxy-2,5,7,8-tetramethylchroman-2-carboxylic acid). The sensitivity is of the order of a nanomole.
The antioxidant activity studied in this test represents the capacity to trap specifically superoxide anions by chemiluminescence.
The quantified results are expressed in Trolox equivalent (standard), i.e. in “μg of product for 1 μg of Trolox”. This signifies that a quantity×of sample is needed to obtain an activity equivalent to the activity detected for 1 μg of standard. It is an anti-oxidant power relative to a reference, which makes it possible to disregard the concentration tested.
The superoxide radical: 02^0− is generated by a photochemical reaction: L+hv (UV)+O2→L*O2→L^0++O2^0−
A part of the superoxide anions is quenched by the anti-oxidants. The remaining free radicals are quantified by chemiluminescence. L^0++O2^0−→N2+AP*^2−→AP^2−+hv (luminescence)

Assay [2] is described as follows: Protection of linoleic acid following a UV stress (Fenton conditions, MDA-TBA assay). Further details: % Protection Linoleic acid under UV/Fenton: concentration or dose not given beside the values. The settings on record: UV + H2O2 + iron II. An excerpt: D) Test of Protection of Linoleic Acid Following a UV Stress. Target: Protection of Linoleic Acid Under Fenton Conditions, UV Irradiation Linoleic acid belongs to the family of polyunsaturated fatty acids (PUFA) (AGPI). Sensitive to oxidation, linoleic acid is a favoured target for oxygenated free radicals (OFR) in biological media. When biological membranes are exposed to an oxidative stress, the components the most affected are the phospholipids constituted of PUFA and cholesterol. Their degradation leads to lipidic peroxidation and generally to destructuring. Lipidic peroxidation is a self-catalysing process which generally involves OFR. Lipidic peroxidation is in part responsible for skin ageing. The method employed to evaluate lipid peroxidation is based on the coupling of thiobarbituric acid (TBA) and secondary degradation products leading to coloured compounds detectable by spectrofluorometry. The essential secondary compound of final degradation is malondialdehyde, MDA. MDA is a carcinogenic and mutagenic aldehyde, it acts on proteins and DNA. The sample to be tested is placed in contact with linoleic acid in a weight/weight ratio. The sample undergoes an MED (Minimal Erythemal Dose) irradiation under Fenton conditions, namely in the presence of H202 and iron II in a solar simulator. Following irradiation, the reaction mixture is taken up in methanol and derivatised at 90° C. with TBA. Chromogene, the MDA-TBA complex, representative of the equimolar production of MDA is assayed by fluorimetry (excitation at 525 nm, emission at 549 nm). The results are expressed in fluorescence units, as a function of a MDA-TBA control range then expressed as concentration of the MDA-TBA complex. Then, the percentage of the starting MDA/linoleic acid (LA) ratio is determined. Then the percentage of protection of linoleic acid is determined. The product assay is expressed as weight/weight ratio, in other words in weight percentage with respect to the total quantity of linoleic acid. The maximal MDA level is determined by the condition UV+H202+iron II (F). The percentage of protection of linoleic acid represents: the % ratio of MDA under maximal stress conditions untreated over the % of MDA under stress conditions treated by the product.

The mark [3] stands for this setting: Mus musculus, read-out: B16 activity results -% at X μM.

T1 sequence (C7FF04 1-392 limits assumed): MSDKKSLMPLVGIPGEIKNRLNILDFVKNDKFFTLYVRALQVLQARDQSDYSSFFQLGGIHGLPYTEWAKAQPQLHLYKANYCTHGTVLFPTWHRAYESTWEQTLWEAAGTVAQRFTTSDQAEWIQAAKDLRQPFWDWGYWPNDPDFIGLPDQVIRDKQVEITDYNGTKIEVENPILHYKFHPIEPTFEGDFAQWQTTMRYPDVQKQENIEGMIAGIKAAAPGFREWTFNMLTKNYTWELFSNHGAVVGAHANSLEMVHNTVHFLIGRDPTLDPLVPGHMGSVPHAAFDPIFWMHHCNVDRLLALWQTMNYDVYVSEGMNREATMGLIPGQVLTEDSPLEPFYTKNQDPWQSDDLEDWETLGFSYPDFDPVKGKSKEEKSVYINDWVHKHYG

In the case of `Oc1ccc(Sc2ccc(O)cc2O)c(O)c1` [Example 1, 4,4′-thiodibenzene-1,3-diol], the “Tyrosinase depigmenting activity result” value on mushroom tyrosinase is on record as “+ + +”. Moreover, the inhibition at 61 µM in the assay with B16-F10 cells (Mus musculus, B16-F10, 61 μM, α-MSH stimulated, 72 hours, negative value = inhibition, read-out: B16 activity results -% at X μM) is 50%. Moreover, in assay [1], the “μg of sample for 1 μg of Trolox” value is given as 23 μg of sample for 1 μg of Trolox. Moreover, the “% Protection Linoleic acid under UV/Fenton” value (from here on “% Protection Linoleic acid”) in assay [2] was found to be 90%.

As for `CC(C)=CCC/C=C(\C)CC/C(C)=C/COc1cc(O)ccc1Sc1ccc(O)cc1O` [Example 2, 4-(4-hydroxy-2-((2E,6E)-3,6,11-trimethyldodcca-2,6,10-trienyloxy)phenylthio)benzene-1,3-diol], on mushroom tyrosinase, the “Tyrosinase depigmenting activity result” value is “+ +”. Also, the “B16 activity results -% at X μM” value in the assay on B16-F10 cells (14 μM, α-MSH stimulated, 72 hours, negative value = inhibition) was −50% (14 μM). Also, the “μg of sample for 1 μg of Trolox” value in assay [1] is listed as 9.7 μg of sample for 1 μg of Trolox. The “% Protection Linoleic acid” value in assay [2] is on record as 92%.

Regarding `CC(C)=CCOc1cc(O)ccc1Sc1ccc(O)cc1O` [Example 3, 4-(4-hydroxy-2-(3-methylbut-2-enyloxy)phenylthio)benzene-1,3-diol], the “Tyrosinase depigmenting activity result” value at mushroom tyrosinase is “+ + +”. Also, the inhibition at 20 µM in the assay with B16-F10 cells (setting [3]) came out at 41%. Moreover, in assay [1], the “μg of sample for 1 μg of Trolox” value was 4.7 μg of sample for 1 μg of Trolox. Besides, in assay [2], the “% Protection Linoleic acid” value worked out at 87%.

`CC(C)=CCC/C(C)=C/COc1cc(O)ccc1Sc1ccc(O)cc1O` [Example 4, (E)-4-(2-(3,7-dimethylocta-2,6-dienyloxy)-4-hydroxyphenylthio)benzene-1,3-diol]: the “Tyrosinase depigmenting activity result” value on mushroom tyrosinase was “+ + +”. Moreover, the inhibition at 10 µM in the assay on B16-F10 cells (setting [3]) stood at 35%. The “μg of sample for 1 μg of Trolox” value in assay [1] is on record as 5.2 μg of sample for 1 μg of Trolox. Also, the “% Protection Linoleic acid” value in assay [2] was determined as 89%.

Regarding `CCCCCCCCOc1ccc(Sc2ccc(O)cc2O)c(O)c1` [Example 8, 4-(2-hydroxy-4-(octyloxy)phenylthio)benzene-1,3-diol], the “Tyrosinase depigmenting activity result” value at mushroom tyrosinase is reported as “+ + +”. The inhibition at 10 µM with B16-F10 cells (setting [3]) is 40%. Moreover, in assay [1], the “μg of sample for 1 μg of Trolox” value was 18.8 μg of sample for 1 μg of Trolox. Further, the “% Protection Linoleic acid” value in assay [2] came to 97%.

With `Oc1ccc(Sc2ccc(O)cc2OCc2ccccc2)c(O)c1` [Example 9, 4-(2-(benzyloxy)-4-hydroxyphenylthio)benzene-1,3-diol], the “Tyrosinase depigmenting activity result” value at mushroom tyrosinase is recorded as “+ + +”. Further, the inhibition at 20 µM in the assay on B16-F10 cells (setting [3]) came out at 31%. Also, the “μg of sample for 1 μg of Trolox” value in assay [1] is 3.2 μg of sample for 1 μg of Trolox. Moreover, in assay [2], the “% Protection Linoleic acid” value turned out to be 85%.

As to `Oc1ccc(Sc2ccc(OCc3ccccc3)cc2O)c(O)c1` [Example 10, 4-(4-(benzyloxy)-2-hydroxyphenylthio)benzene-1,3-diol], at mushroom tyrosinase, the “Tyrosinase depigmenting activity result” value was “+ + +”. Moreover, the inhibition at 20 µM in the assay on B16-F10 cells (setting [3]) stood at 20%. Moreover, the “μg of sample for 1 μg of Trolox” value in assay [1] is listed as 22 μg of sample for 1 μg of Trolox. Also, in assay [2], the “% Protection Linoleic acid” value is reported as 94%.

Regarding `COc1ccc(COc2cc(O)ccc2Sc2ccc(O)cc2O)cc1` [Example 11, 4-(4-hydroxy-2-(4-methoxybenzyloxy)phenylthio)benzene-1,3-diol], the “Tyrosinase depigmenting activity result” value at mushroom tyrosinase is “+ + +”. In the assay with B16-F10 cells (setting [3]), the inhibition at 20 µM came out at 34%. In addition, the “μg of sample for 1 μg of Trolox” value in assay [1] is 3.5 μg of sample for 1 μg of Trolox. The “% Protection Linoleic acid” value in assay [2] came to 91%.

`CCCCCCCC(=O)Oc1cc(O)ccc1Sc1ccc(O)cc1O` [Example 15, 2-(2,4-dihydroxyphenylthio)-5-hydroxyphenyl octanoate]: the “Tyrosinase depigmenting activity result” value at mushroom tyrosinase is given as “+ +”. The inhibition at 10 µM in the assay on B16-F10 cells (setting [3]) came out at 20%. In addition, in assay [1], the “μg of sample for 1 μg of Trolox” value is recorded as 30 μg of sample for 1 μg of Trolox. Besides, the “% Protection Linoleic acid” value in assay [2] is 75%.

Turning to `CCCCC/C=C\C/C=C\CCCCCCCC(=O)Oc1cc(O)ccc1Sc1ccc(O)cc1O` [Example 21, (9Z, 12Z)-2-(2,4-dihydroxyphenylthio)-5-hydroxyphenyl octadeca-9,12-dienoate], at mushroom tyrosinase, the concentration for half-maximal inhibition (IC50) worked out at 11 µM and the “Tyrosinase depigmenting activity result” value is listed as “+ + +”. Further, in the assay with B16-F10 cells (Mus musculus, B16-F10, 32 μM, α-MSH stimulated, 72 hours, negative value = inhibition, read-out: B16 activity results -% at X μM), the inhibition at 32 µM was 50%. In addition, the “μg of sample for 1 μg of Trolox” value in assay [1] was 5.9 μg of sample for 1 μg of Trolox.

For the origin of these results see US8859819B2, “Sulphurated derivatives of resorcinol, preparation of same and cosmetic uses thereof” (Pierre Fabre Dermo-Cosmetique, priority 2009, dated 2014).
